Results published in paper PMC12367838, “Relevance of kinetic interactions and co-formulants for plant protection product liver toxicity in vitro” (Archives of Toxicology, 2025).

Assays:
HepaRG cells [1] = assay: Neutral red uptake (NRU) cytotoxicity assay; type: cell-based, human; conditions: 72 h, tested concentration range
Procedure: (§1) Wild-type human hepatoma HepaRG cells obtained from Biopredic International (Saint Grégoire, France) were cultivated for 4 weeks in a Binder cell culture incubator maintained at 37 °C in a 5% humidified atmosphere with 5% CO2 before they were employed in this study. The 4 weeks consisted of 2 weeks of proliferation and 2 weeks of differentiation. […]
(§2) Cytotoxicity assays were performed in 96-well plates at a density of 9000 cells per well, and test compounds were incubated for 72 h. […] After the 30-min incubation with WST-1, absorbance was measured at 450 nm corrected by a reference at 620 nm (λexc = 450 nm/λemi = 620 nm) using an Infinite M200 PRO plate reader (Tecan; Männedorf, Switzerland). […] The absorbed dye was quantified by fluorescence measurement (λexc = 530 nm/λemi = 645 nm) on an Infinite M200 PRO plate reader (Tecan; Männedorf, Switzerland). Background corrected viability values of both assays were expressed as a percentage of untreated cells. […] Means and standard deviations for each treatment were calculated. […]

HepaRG cells [2] = assay: WST-1 cytotoxicity assay; type: cell-based, human; conditions: WST-1 assay, 72 h incubation
Procedure: as §1, §2

C#CCOc1ccc(CCNC(=O)C(OCC#C)c2ccc(Cl)cc2)cc1OC (centres unmarked) [MDP, mandipropamid]
cytotoxicity (HepaRG cells [1]): not cytotoxic in the tested concentration range
EC50 for cytotoxicity (HepaRG cells [2]): 245 µg/mL
